Read-outs that look alike come from different tables or passages of the source.
Test system: β-catenin-TCF-mediated reporter transcription activity in Colo 205 cells
Assay: Colo 205 reporter assay (TCF/LEF luciferase)
Assay type: cell-based
Conditions: Colo 205 TCF/LEF luciferase reporter, read-out: TCF reporter Colo205 IC50
How it was run: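 Luciferase signal from a TCF/LEF-driven reporter, stably integrated in Colo 205 colon cancer cells, was measured 5 h after compound addition.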

[1] = Homo sapiens, COLO 205, 5 h, five hours after addition of compound
[2] = five hours after addition of compound
[3] = Homo sapiens, COLO 205, 5 h, R-isomer at C2 (corresponding to C2 S-isomer), 5 h

Compound | IC50 [1] [nM] | also measured
Cc1nc(NCc2cnn([C@@H]3C[C@@H]3c3ccc(F)cc3)c2)nc2c1N(C)C(=O)[C@H](C)N2C [Compound 152, (7S)-2-(((1-((1R,2R)-2-(4-fluorophenyl)cyclopropyl)-1H-pyrazol-4-yl)methyl)amino)-4,5,7,8-tetramethyl-7,8-dihydropteridin-6(5H)-one] | < 300 | –
Cc1nc(NC2CN(Cc3ccc(C(F)(F)F)cc3)C2)nc2c1NC(=O)[C@H](C(C)C)N2C [Compound 650, (S)-7-isopropyl-4,8-dimethyl-2-((1-(4-(trifluoromethyl)benzyl)azetidin-3-yl)amino)-7,8-dihydropteridin-6(5H)-one] | < 300 | –
Cc1nc(N[C@H]2C[C@@H](Sc3ccc(C(F)(F)F)cc3)C2)nc2c1N(C)C(=O)[C@H](C)N2C [Compound 322, (7S)-4,5,7,8-tetramethyl-2-((cis-3-((4-(trifluoromethyl)phenyl)thio)cyclobutyl)amino)-7,8-dihydropteridin-6(5H)-one] | 300 to 1000 | –
Cc1nc(NCc2cnn(Cc3ccc(C(F)(F)F)nc3)c2)nc2c1NC(=O)C1(CCOC1)N2C (stereo not drawn) [Compound 663, 4′,8′-dimethyl-2′-(((1-((6-(trifluoromethyl)pyridin-3-yl)methyl)-1H-pyrazol-4-yl)methyl)amino)-4,5,5′,8′-tetrahydro-2H,6′H-spiro[furan-3,7′-pteridin]-6′-one] | – | IC50 [2]: 1000 to 5000 nM
Cc1nc(NC2CN(C(=O)c3cc(C(F)(F)F)nn3C)C2)nc2c1NC(=O)[C@H](C(C)C)N2C [Compound 596, (S)-7-isopropyl-4,8-dimethyl-2-((1-(1-methyl-3-(trifluoromethyl)-1H-pyrazole-5-carbonyl)azetidin-3-yl)amino)-7,8-dihydropteridin-6(5H)-one] | < 300 | –
Cc1nc(N[C@H]2CC[C@H](N(C)c3ccc(C(F)(F)F)cc3)C2)nc2c1NC(=O)[C@H](C(C)C)N2C [Compound 503, (S)-7-isopropyl-4,8-dimethyl-2-(((1S,3S)-3-(methyl(4-(trifluoromethyl)phenyl)amino)cyclopentyl)amino)-7,8-dihydropteridin-6(5H)-one] | 1000 to 5000 | –
Cc1nc(NC2CN(C(=O)c3cc(C(F)(F)F)n(C)n3)C2)nc2c1NC(=O)[C@H](C(C)C)N2C [Compound 597, (S)-7-isopropyl-4,8-dimethyl-2-((1-(1-methyl-5-(trifluoromethyl)-1H-pyrazole-3-carbonyl)azetidin-3-yl)amino)-7,8-dihydropteridin-6(5H)-one] | 1000 to 5000 | –
Cc1nc(NCc2cnn(Cc3ccc(F)cc3)c2C)nc2c1NC(=O)[C@H](C)N2C [Compound 74, (7S)-2-(((1-(4-fluorobenzyl)-5-methyl-1H-pyrazol-4-yl)methyl)amino)-4,7,8-trimethyl-7,8-dihydropteridin-6(5H)-one] | 300 to 1000 | –
Cc1nc(N[C@H]2C[C@@H](Oc3ccc(F)cc3)C2)nc2c1NC(=O)[C@H](C)N2C [Compound 243, (7S)-2-((cis-3-(4-fluorophenoxy)cyclobutyl)amino)-4,7,8-trimethyl-7,8-dihydropteridin-6(5H)-one] | 1000 to 5000 | –
Cc1nc(NCc2cnn(Cc3ccc(C(F)(F)F)nc3)c2)nc2c1NC(=O)[C@H](C1CCC1)N2C [Compound 567, (7S)-7-cyclobutyl-4,8-dimethyl-2-(((1-((6-(trifluoromethyl)pyridin-3-yl)methyl)-1H-pyrazol-4-yl)methyl)amino)-7,8-dihydropteridin-6(5H)-one] | < 300 | –
Cc1nc(NCc2cnn([C@H](C)c3ccc(F)cc3)c2)nc2c1NC(=O)[C@H](C)N2C [Compound 72, (7S)-2-(((1-((R)-1-(4-fluorophenyl)ethyl)-1H-pyrazol-4-yl)methyl)amino)-4,7,8-trimethyl-7,8-dihydropteridin-6(5H)-one] | < 300 | –
Cc1nc(N[C@@H]2CC[C@H](Nc3cnc(C(F)(F)F)cn3)C2)nc2c1NC(=O)[C@H](C)N2C [Compound 737, (S)-4,7,8-trimethyl-2-(((1R,3S)-3-((5-(trifluoromethyl)pyrazin-2-yl)amino)cyclopentyl)amino)-7,8-dihydropteridin-6(5H)-one] | 1000 to 5000 | –
Cc1nc(N[C@H]2C[C@@H](NC(=O)Nc3ccc(C(F)(F)F)nc3)C2)nc2c1NC(=O)[C@H](C)N2C [Compound 473, 1-(6-(trifluoromethyl)pyridin-3-yl)-3-(cis-3-(((S)-4,7,8-trimethyl-6-oxo-5,6,7,8-tetrahydropteridin-2-yl)amino)cyclobutyl)urea] | < 300 | –
Cc1nc(N[C@H]2C[C@@H](Nc3ncc(C#N)cc3F)C2)nc2c1NC(=O)[C@H](C(C)C)N2C [Compound 715, 5-fluoro-6-((cis-3-(((S)-7-isopropyl-4,8-dimethyl-6-oxo-5,6,7,8-tetrahydropteridin-2-yl)amino)cyclobutyl)amino)nicotinonitrile] | 1000 to 5000 | –
Cc1nc(NCc2cnn([C@H]3C[C@H]3c3ccc(F)cc3)c2)nc2c1N(C)C(=O)[C@H](C)N2C [Compound 153, (7S)-2-(((1-((1S,2S)-2-(4-fluorophenyl)cyclopropyl)-1H-pyrazol-4-yl)methyl)amino)-4,5,7,8-tetramethyl-7,8-dihydropteridin-6(5H)-one] | < 300 | –
Cc1nc(N[C@H]2C[C@@H](COc3ccc(F)c(F)c3F)C2)nc2c1NC(=O)[C@H](C)N2C [Compound 281, (7S)-4,7,8-trimethyl-2-((cis-3-((2,3,4-trifluorophenoxy)methyl)cyclobutyl)-amino)-7,8-dihydropteridin-6(5H)-one] | < 300 | –
CCOc1ccc(CCn2cc(CNc3nc(C)c4c(n3)N(C)[C@@H](C)C(=O)N4)cn2)cc1 [Compound 108, (7S)-2-(((1-(4-ethoxyphenethyl)-1H-pyrazol-4-yl)methyl)amino)-4,7,8-trimethyl-7,8-dihydropteridin-6(5H)-one] | 300 to 1000 | –

Compound | IC50 [1] [nM] | also measured
C[C@@H]1C(=O)N(C)c2cnc(NCc3cnn(Cc4ccc(F)cc4)c3)nc2N1C [Compound I-809] | – | IC50 [3]: 300 to 1000 nM
Cc1nc(N[C@H]2C[C@H](Oc3ccc(F)cc3)C2)nc2c1NC(=O)[C@H](C)N2C [Compound 242, (7S)-2-((trans 3-(4-fluorophenoxy)cyclobutyl)amino)-4,7,8-trimethyl-7,8-dihydropteridin-6(5H)-one] | < 300 | –
Cc1nc(N[C@H]2C[C@H](Oc3ccc(F)c(F)c3)C2)nc2c1N(C)C(=O)[C@H](C)N2C [Compound 252, (7S)-2-((trans-3-(3,4-difluorophenoxy)cyclobutyl)amino)-4,5,7,8-tetramethyl-7,8-dihydropteridin-6(5H)-one] | < 300 | –
Cc1nc(N[C@H]2C[C@H](Oc3ccc(C(F)(F)F)nc3)C2)nc2c1NC(=O)[C@H](COC(C)(C)C)N2C [Compound 725, (S)-7-(tert-butoxymethyl)-4,8-dimethyl-2-((trans-3-((6-(trifluoromethyl)pyridin-3-yl)oxy)cyclobutyl)amino)-7,8-dihydropteridin-6(5H)-one] | < 300 | –
Cc1nc(N[C@H]2C[C@H](c3ccc(OC(F)(F)F)cc3)C2)nc2c1NC(=O)[C@H](C)N2C [Compound 506, (7S)-4,7,8-trimethyl-2-(((trans)-3-(4-(trifluoromethoxy)phenyl)cyclo-butyl)amino)-7,8-dihydropteridin-6(5H)-one] | 300 to 1000 | –
Cc1nc(N[C@@H]2CCN(C(=O)c3cc(F)c(F)c(F)c3)C2)nc2c1NC(=O)[C@H](C(C)C)N2C [Compound I-541] | 300 to 1000 | –
Cc1nc(NCc2cnn(Cc3ccncc3C(F)(F)F)c2)nc2c1NC(=O)[C@@H](C)N2C [Compound I-1637] | – | IC50 [3]: 1000 to 5000 nM
COc1ccc(O[C@H]2C[C@H](Nc3nc(C)c4c(n3)N(C)[C@@H](C)C(=O)N4C)C2)cc1 [Compound 343, (7S)-2-((trans-3-(4-methoxyphenoxy)cyclobutyl)amino)-4,5,7,8-tetramethyl-7,8-dihydropteridin-6(5H)-one] | ≥ 5000 | –
Cc1nc(N[C@H]2C[C@H](Oc3ncc(F)cn3)C2)nc2c1N(C)C(=O)[C@H](C)N2C [Compound 274, (S)-2-((trans-3-((5-fluoropyrimidin-2-yl)oxy)cyclobutyl)amino)-4,5,7,8-tetramethyl-7,8-dihydropteridin-6(5H)-one] | ≥ 5000 | –
Cc1nc(NC2CN(C(=O)c3cnccn3)C2)nc2c1NC(=O)[C@H](C(C)C)N2C [Compound 631, (S)-7-isopropyl-4,8-dimethyl-2-((1-(pyrazine-2-carbonyl)azetidin-3-yl)amino)-7,8-dihydropteridin-6(5H)-one] | ≥ 5000 | –
COc1c(F)cc(Cn2cc(CNc3nc(C)c4c(n3)N(C)[C@@H]([C@H](C)OC(C)(C)C)C(=O)N4)cn2)cc1F [Compound 746, (S)-7-((S)-1-(tert-butoxy)ethyl)-2-(((1-(3,5-difluoro-4-methoxybenzyl)-1H-pyrazol-4-yl)methyl)amino)-4,8-dimethyl-7,8-dihydropteridin-6(5H)-one] | 300 to 1000 | –
(7S)-7-(2-hydroxyethyl)-4-methyl-2-(((1-((6-(trifluoromethyl)pyridin-3-yl)methyl)-1H-pyrazol-4-yl)methyl)amino)-7,8-dihydropteridin-6(5H)-one [Compound 440] | – | IC50 [2]: < 300 nM
Cc1nc(N[C@H]2C[C@H](Oc3cc(F)c(F)c(F)c3)C2)nc2c1N(CCF)C(=O)[C@H](C)N2C [Compound 381, (7S)-5-(2-fluoroethyl)-4,7,8-trimethyl-2-((trans-3-(3,4,5-trifluorophenoxy)-cyclobutyl)-amino)-7,8-dihydropteridin-6(5H)-one] | 300 to 1000 | –
Cc1nc(NCc2cnn(Cc3ccc(Cl)nc3)c2)nc2c1N(C)C(=O)[C@@H](CCO)N2C [Compound I-1644] | – | IC50 [3]: 1000 to 5000 nM
Cc1nc(N[C@H]2C[C@@H](Nc3ccc(C(F)(F)F)cn3)C2)nc2c1NC(=O)[C@H](C)N2C [Compound 562, (S)-4,7,8-trimethyl-2-((cis-3-((5-(trifluoromethyl)pyridin-2-yl)amino)cyclobutyl)amino)-7,8-dihydropteridin-6(5H)-one] | 300 to 1000 | –
Cc1nc(N[C@H]2CCN(C(=O)c3cc(F)c(F)c(F)c3)C2)nc2c1NC(=O)[C@H](C(C)C)N2C [Compound I-509] | 300 to 1000 | –

Source: patent US20230312587A1, “PTERIDINONE COMPOUNDS AND USES THEREOF” (Vertex Pharmaceutical Incorporated, priority 2018, published 2023)
